According to patent US20110002877A1, “PTEN Inhibitors Treat Neutropenia-Associated Pneumonia” (priority 2009, published 2011):

Tested on: circulating neutrophils
Settings: day 5; two i.p. injections, total 250 mg/kg (150 mg/kg day 1, 100 mg/kg day 4)
From the text: We first examined neutrophil recruitment and its bacteria-killing capability under neutropenic conditions. We induced neutropenia using a widely used chemotherapeutic drug, cyclophosphamide (Cy), which is used primarily to treat cancer.
We also examined neutrophil recruitment and its bacteria-killing capability under neutropenic conditions. We induced neutropenia using a widely used chemotherapeutic drug, cyclophosphamide (Cy).

In the case of `O=P1(N(CCCl)CCCl)NCCCO1` (stereo not shown) [Cy, cyclophosphamide], the “fewer circulating neutrophils than the untreated group” value is reported as “approximately 90%”.
